Columns and labels:
[1] = target: T1, Avi-KRAS G12D (1-169) GppNHp/RAF1 RBD-3xFLAG (52-151) (Homo sapiens, UniProt P01116, G12D); assay: Raf1-KRAS G12D-GppNHP disruption HTRF assay (Biological Example 1); type: binding; details: KRAS G12D, GppNHp-loaded; Table 11
T1 construct: Avi-KRAS G12D (1-169)
Outline: (§1)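 First, protein mix in Tris pH 7.5 buffer with NaCl, MgCl2, BSA, Tween and 10% DMSO is incubated 1 h at room temperature. Next, reagent mix is added and incubated a further 1 h at room temperature. Finally, HTRF is read and activity normalized to DMSO.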

[2] = target: T2, Avi-KRAS G12R (1-169) GppNHp/RAF1 RBD-3xFLAG (52-151) (Homo sapiens, UniProt P01116, G12R); assay: Raf1-KRAS G12R-GppNHP disruption HTRF assay (Biological Example 1); type: binding; details: KRAS G12R, GppNHp-loaded; Table 11
T2 construct: Avi-KRAS G12R (1-169)
Outline: as §1

[3] = tested on: GP2d cells (KRAS G12D); assay: Cell-based pERK HTRF assay in GP2d cell (Biological Example 2); details: GP2d (KRAS G12D) cells, pERK HTRF
Outline: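 Cells grown in DMEM with 10% FBS were exposed to compound for 60 min at 0.25% DMSO, using a 9-point half-log series starting at 1 μM or 100 nM. Lysates were then mixed with d2 and Eu cryptate antibodies for 4–24 h at room temperature, and pERK was read by HTRF.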

[4] = target: T3, Avi-KRAS G12V (1-169) GppNHp/RAF1 RBD-3xFLAG (52-151) (Homo sapiens, UniProt P01116, G12V); assay: Raf1-KRAS G12V-GppNHP disruption HTRF assay (Biological Example 1); type: binding; details: KRAS G12V, GppNHp-loaded; Table 11
T3 construct: Avi-KRAS G12V (1-169)
Outline: as §1

[5] = target: T4, Avi-KRAS WT (1-169) GppNHp/RAF1 RBD-3xFLAG (52-151) (Homo sapiens, UniProt P01116); assay: Raf1-KRAS WT-GppNHP disruption HTRF assay (Biological Example 1); type: binding; details: KRAS WT, GppNHp-loaded; Table 11
T4 construct: Avi-KRAS WT (1-169)
Outline: as §1

T4 sequence (P01116 1-169 isoform P01116-2): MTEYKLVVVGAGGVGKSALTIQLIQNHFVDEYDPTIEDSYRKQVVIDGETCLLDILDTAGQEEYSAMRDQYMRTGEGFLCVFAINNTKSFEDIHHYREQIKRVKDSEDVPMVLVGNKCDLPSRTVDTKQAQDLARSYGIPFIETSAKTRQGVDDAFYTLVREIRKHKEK
T1 sequence (P01116 1-169 isoform P01116-2 G12D): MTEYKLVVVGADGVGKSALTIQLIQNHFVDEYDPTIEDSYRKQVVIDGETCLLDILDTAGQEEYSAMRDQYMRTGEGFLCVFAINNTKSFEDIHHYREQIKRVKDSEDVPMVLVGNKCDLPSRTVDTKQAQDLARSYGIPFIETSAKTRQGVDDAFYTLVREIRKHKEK
T2 sequence (P01116 1-169 isoform P01116-2 G12R): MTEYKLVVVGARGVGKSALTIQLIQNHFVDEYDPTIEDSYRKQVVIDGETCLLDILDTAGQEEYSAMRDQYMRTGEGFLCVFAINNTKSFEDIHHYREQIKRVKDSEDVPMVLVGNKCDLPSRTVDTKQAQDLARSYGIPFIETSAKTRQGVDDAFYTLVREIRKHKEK
T3 sequence (P01116 1-169 isoform P01116-2 G12V): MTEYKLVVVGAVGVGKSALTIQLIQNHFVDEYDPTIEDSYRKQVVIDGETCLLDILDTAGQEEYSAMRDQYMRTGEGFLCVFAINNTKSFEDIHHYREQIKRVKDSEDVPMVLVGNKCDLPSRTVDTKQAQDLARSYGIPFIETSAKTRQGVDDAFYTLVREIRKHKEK

Row | SMILES | IC50 [1] [µM] | IC50 [2] [µM] | IC50 ([3]; GP2d) [µM] | IC50 [4] [µM] | IC50 [5] [µM] | IC50 [3] [µM]
1 | C[C@@H](CO)N(C)c1nc(OC[C@@]23CCCN2C[C@H](F)C3)nc2c(F)c(-c3ccc(F)c4sc(N)c(C#N)c34)c(C(F)(F)F)cc12 [Compound 77] | < 0.1 | 0.1 to 1 | < 0.1 | 0.1 to 1 | 0.1 to 1 | 
2 | CN(C[C@@H](O)CO)c1nc(OC[C@@]23CCCN2C[C@H](F)C3)nc2c(F)c(-c3ccc(F)c4sc(N)c(C#N)c34)c(C(F)(F)F)cc12 [Compound 78] | < 0.1 | 0.1 to 1 | < 0.1 | 0.1 to 1 | 0.1 to 1 | 
3 | CN(C[C@H](O)CO)c1nc(OC[C@@]23CCCN2C[C@H](F)C3)nc2c(F)c(-c3ccc(F)c4sc(N)c(C#N)c34)c(C(F)(F)F)cc12 [Compound 79] | < 0.1 | 0.1 to 1 | < 0.1 | 0.1 to 1 | 0.1 to 1 | 
4 | CN(c1nc(OC[C@@]23CCCN2C[C@H](F)C3)nc2c(F)c(-c3ccc(F)c4sc(N)c(C#N)c34)c(C(F)(F)F)cc12)C(CO)CO [Compound 80] | < 0.1 | 0.1 to 1 | < 0.1 | 0.1 to 1 | 0.1 to 1 | 
5 | CCN(C)c1nc(OC[C@@]23CCCN2C[C@H](F)C3)nc2c(F)c(-c3ccc(F)c4sc(N)c(C#N)c34)c(C(F)(F)F)cc12 [Compound 81, 2-amino-4-[4-[ethyl(methyl)amino]-8-fluoro-2-[[(2R,8S)-2-fluoro-1,2,3,5,6,7-hexahydropyrrolizin-8-yl]methoxy]-6-(trifluoromethyl)quinazolin-7-yl]-7-fluoro-benzothiophene-3-carbonitrile] | < 0.1 | < 0.1 | < 0.1 | 0.1 to 1 | 0.1 to 1 | 
6 | CN(CCO)c1nc(OC[C@@]23CCCN2C[C@H](F)C3)nc2c(F)c(-c3ccc(F)c4sc(N)nc34)c(C(F)(F)F)cc12 [Compound 82] | 0.1 to 1 | 1 to 10 | 0.1 to 1 | 1 to 10 | 1 to 10 | 
7 | CN(CC1(CO)CC1)c1nc(OC[C@@]23CCCN2C[C@H](F)C3)nc2c(F)c(-c3ccc(F)c4sc(N)c(C#N)c34)c(C(F)(F)F)cc12 [Compound 83] | 0.1 to 1 | 0.1 to 1 | < 0.1 | 0.1 to 1 | 0.1 to 1 | 
8 | CN(c1nc(OC[C@@]23CCCN2C[C@H](F)C3)nc2c(F)c(-c3ccc(F)c4sc(N)c(C#N)c34)c(C(F)(F)F)cc12)[C@H]1CCC[C@@H]1CO [Compound 86] | 0.1 to 1 | 0.1 to 1 | < 0.1 | 1 to 10 | 1 to 10 | 
9 | CN(c1nc(OC[C@@]23CCCN2C[C@H](F)C3)nc2c(F)c(-c3ccc(F)c4sc(N)c(C#N)c34)c(C(F)(F)F)cc12)[C@@H]1CCC[C@H]1CO [Compound 87] | > 10 | > 10 | > 1 | > 10 | > 10 | 
10 | CC(=O)NC1CN(c2nc(OC[C@@]34CCCN3C[C@H](F)C4)nc3c(F)c(-c4ccc(F)c5sc(N)c(C#N)c45)c(C(F)(F)F)cc23)C1 [Compound 88] | 0.1 to 1 | 0.1 to 1 | 0.1 to 1 | 0.1 to 1 | 0.1 to 1 | 
11 | N#Cc1c(N)sc2c(F)ccc(-c3c(C(F)(F)F)cc4c(N5CCOCC5)nc(OC[C@@]56CCCN5C[C@H](F)C6)nc4c3F)c12 [Compound 90] | 0.1 to 1 | 0.1 to 1 | < 0.1 | 0.1 to 1 | 0.1 to 1 | 
12 | CN(c1nc(OC[C@@]23CCCN2C[C@H](F)C3)nc2c(F)c(-c3ccc(F)c4sc(N)c(C#N)c34)c(C(F)(F)F)cc12)[C@@H]1CCS(=O)(=O)C1 [Compound 93] | 0.1 to 1 | 0.1 to 1 | < 0.1 | 0.1 to 1 | 0.1 to 1 | 
13 | CN(c1nc(OC[C@@]23CCCN2C[C@H](F)C3)nc2c(F)c(-c3ccc(F)c4sc(N)c(C#N)c34)c(C(F)(F)F)cc12)[C@H]1CCS(=O)(=O)C1 [Compound 94, 2-amino-4-(4-(((S)-1,1-dioxidotetrahydrothiophen-3-yl)(methyl)amino)-8-fluoro-2-(((2R,7aS)-2-fluorotetrahydro-1H-pyrrolizin-7a(5H)-yl)methoxy)-6-(trifluoromethyl)quinazolin-7-yl)-7-fluorobenzo[b]thiophene-3-carbonitrile] | 0.1 to 1 | 0.1 to 1 | < 0.1 | 0.1 to 1 | 0.1 to 1 | 
14 | CN(c1nc(OC[C@@]23CCCN2C[C@H](F)C3)nc2c(F)c(-c3ccc(F)c4sc(N)c(C#N)c34)c(C(F)(F)F)cc12)[C@@H]1CCN(S(C)(=O)=O)C1 [Compound 95] | 0.1 to 1 | 0.1 to 1 |  | 0.1 to 1 | 0.1 to 1 | < 0.1
15 | CS(=O)(=O)N1CCN(c2nc(OC[C@@]34CCCN3C[C@H](F)C4)nc3c(F)c(-c4ccc(F)c5sc(N)c(C#N)c45)c(C(F)(F)F)cc23)CC1 [Compound 96] | 1 to 10 | 1 to 10 | < 0.1 | 1 to 10 | 1 to 10 | 
16 | CC(=O)N1CCN(c2nc(OC[C@@]34CCCN3C[C@H](F)C4)nc3c(F)c(-c4ccc(F)c5sc(N)c(C#N)c45)c(C(F)(F)F)cc23)CC1 [Compound 100] | 0.1 to 1 | 0.1 to 1 | < 0.1 | 1 to 10 | 0.1 to 1 | 
17 | N#Cc1c(N)sc2c(F)ccc(-c3c(C(F)(F)F)cc4c(N5CCN(C(=O)CO)CC5)nc(OC[C@@]56CCCN5C[C@H](F)C6)nc4c3F)c12 [Compound 101] | 0.1 to 1 | 0.1 to 1 | < 0.1 | 1 to 10 | 0.1 to 1 | 
18 | CC(=O)N1CCC(N(C)c2nc(OCC34CCCN3CC(F)C4)nc3c(F)c(-c4ccc(F)c5scc(C#N)c45)c(C(F)(F)F)cc23)C1 (stereo not drawn) [Compound 105] | > 10 | > 10 |  | > 10 | > 10 | > 1
19 | CN(c1nc(OC[C@@]23CCCN2C[C@H](F)C3)nc2c(F)c(-c3ccc(F)c4scc(C#N)c34)c(C(F)(F)F)cc12)[C@@H]1CCN(C(=O)CC#N)C1 [Compound 106] | > 10 | > 10 | > 1 | > 10 | > 10 | 
20 | CN(c1nc(OC[C@@]23CCCN2C[C@H](F)C3)nc2c(F)c(-c3ccc(F)c4scc(C#N)c34)c(C(F)(F)F)cc12)[C@@H]1CCN(C(=O)CO)C1 [Compound 107] | > 10 | > 10 | > 1 | > 10 | > 10 | 
21 | CCC(=O)N1CC[C@@H](N(C)c2nc(OC[C@@]34CCCN3C[C@H](F)C4)nc3c(F)c(-c4ccc(F)c5sc(N)c(C#N)c45)c(C(F)(F)F)cc23)C1 [Compound 113] | 0.1 to 1 | 0.1 to 1 | < 0.1 | 0.1 to 1 | 0.1 to 1 | 
22 | CC(=O)N1CCC(N(C)c2nc(OC[C@@]34CCCN3C[C@H](F)C4)nc3c(F)c(-c4ccc(F)c5sc(N)c(C#N)c45)c(C(F)(F)F)cc23)[C@H]1C (stereo partly drawn) [Compound 114] | 0.1 to 1 | 0.1 to 1 | < 0.1 | 0.1 to 1 | 0.1 to 1 | 
23 | CCC(=O)N1CC[C@@H](N(C)c2nc(OC[C@@]34CCCN3C[C@H](F)C4)nc3c(F)c(-c4ccc(F)c5sc(N)c(C#N)c45)c(C(F)(F)F)cc23)[C@H]1C [Compound 116] | 0.1 to 1 | 0.1 to 1 | < 0.1 | 0.1 to 1 | 0.1 to 1 | 
24 | COC[C@@H]1[C@H](N(C)c2nc(OC[C@@]34CCCN3C[C@H](F)C4)nc3c(F)c(-c4ccc(F)c5sc(N)c(C#N)c45)c(C(F)(F)F)cc23)CCN1C(C)=O [Compound 117] | 0.1 to 1 | 0.1 to 1 | < 0.1 | 0.1 to 1 | 0.1 to 1 | 
25 | CCN(c1nc(OC[C@@]23CCCN2C[C@H](F)C3)nc2c(F)c(-c3ccc(F)c4sc(N)c(C#N)c34)c(C(F)(F)F)cc12)[C@@H]1CCN(C(C)=O)[C@@H]1COC [Compound 118] | 0.1 to 1 | 0.1 to 1 | < 0.1 | 0.1 to 1 | 0.1 to 1 | 
26 | CN(c1nc(OC[C@@]23CCCN2C[C@H](F)C3)nc2c(F)c(-c3ccc(F)c4sc(N)c(C#N)c34)c(C(F)(F)F)cc12)[C@H]1CCN(S(C)(=O)=O)C1 [Compound 119] | 1 to 10 | 1 to 10 | < 0.1 | 1 to 10 | 0.1 to 1 | 
27 | CCCN(C)c1nc(OC[C@@]23CCCN2C[C@H](F)C3)nc2c(F)c(-c3ccc(F)c4sc(N)c(C#N)c34)c(C(F)(F)F)cc12 [Compound 120] | 0.1 to 1 | 0.1 to 1 | < 0.1 | 0.1 to 1 | 0.1 to 1 | 

Reference: patent publication US20260042764A1, “COMPOSITIONS AND METHODS FOR INHIBITION OF KRAS” (TheRas, Inc., priority 2022, published 2026)
